Data on one substance can be found in patent US8551711B2, “Screening method of glutathione-increasing substance” (Teikyo University, priority 2006, dated 2013).

The subject of assay [1] is GTRAP3-18 protein. Briefly: Western blot of GTRAP3-18 protein expression in HEK293 cell. The format is cell-based. The note with it: ratio to actin, oligonucleotide transiently introduced or 250 μM MeβCD, vs control (sense oligonucleotide). On the procedure:
(§1) FIG. 1 Results obtained by examining influences of a GTRAP3-18 antisense oligonucleotide and methyl-β-cyclodextrin (MeβCD) against the expression of a GTRAP3-18 protein of an HEK293 cell. A GTRAP3-18 sense oligonucleotide (GTRAP3-18(S)) or an antisense oligonucleotide (GTRAP3-18(As)) was introduced into an HEK293 cell, or 250 μM of methyl-β-cyclodextrin (MeβCD) was made to act thereon. A) After homogenizing the cell, western blot was performed using an anti-EAAC1 antibody, an anti-GTRAP3-18 antibody and an anti-actin antibody. B) The results of the western blot were digitalized and indicated in terms of a ratio to actin. GTRAP3-18 decreased by the introduction of the GTRAP3-18 antisense oligonucleotide, and GTRAP3-18 increased by MeβCD.
(§2) By transiently introducing an antisense oligonucleotide of GTRAP3-18 into an HEK293 cell, the amount of GTRAP3-18 in the cell was decreased (FIG. 1). Next, the amount of intracellular glutathione was assayed by ThioGlo-1 (manufactured by Calbiochem). […] of the amount of GTRAP3-18 was confirmed by a western blot method. A cell into which a sense oligonucleotide had been introduced was used as a control group.
On the other hand, it was confirmed by a western blot method that when methyl-β-cyclodextrin (MeβCD) was added to HEK293 cell, the amount of GTRAP3-18 increased as compared with the control group (FIG. 1).
On the technique in general: In western blotting, separated proteins are transferred to a membrane and probed.

For the next assay, the system named is EAAC1. Briefly: Western blot of EAAC1 amount in HEK293 cell. It counts as cell-based. As to conditions: ratio to actin, oligonucleotide introduced or 250 μM MeβCD. On the procedure:
as §1

Assay [2] deals with intracellular glutathione (GSH). As to the kind of experiment: Amount of intracellular glutathione in HEK293 cell assayed by ThioGlo-1. The format is cell-based. As to conditions: conditions of FIG. 1, vs control group. Here is the method:
FIG. 2 The amount of intracellular glutathione (GSH) was quantitatively determined under the conditions of FIG. 1. Glutathione increased by the introduction of the GTRAP3-18 antisense oligonucleotide, and glutathione decreased by MeβCD.
as §2

In assay [3] the test system is GTRAP3-18 protein. Briefly: Western blot of GTRAP3-18 protein in mouse hippocampus after intraventricular administration. It counts as in vivo. As to conditions: administered in cerebral ventricle (siRNA 10 μg/h, after one week), vs control (buffer). On the procedure: FIG. 3 Results obtained by examining influences of GTRAP3-18 siRNA against the expression of a GTRAP3-18 protein of a mouse hippocampus cell. A) After homogenizing the cell, western blot was performed using an anti-GTRAP3-18 antibody. B) The results of the western blot were digitalized and indicated in terms of a ratio to the buffer administration. The amount of GTRAP3-18 decreased by the introduction of GTRAP3-18 siRNA.
(§3) FIG. 6 Results obtained by examining influences of methyl-β-cyclodextrin (MeβCD) against the expression of a GTRAP3-18 protein of mouse hippocampus. A) After homogenizing the cell, western blot was performed using an anti-EAAC1 antibody, an anti-GTRAP3-18 antibody and an anti-actin antibody. B) The results of the western blot were digitalized and indicated in terms of a ratio to actin. GTRAP3-18 increased by MeβCD.
(§4) siRNA against GTRAP3-18 was administered (10 μg/h) in a cerebral ventricle of a mouse.
On the other hand, when methyl-β-cyclodextrin (MeβCD) was administered in a cerebral ventricle of a mouse, the amount of GTRAP3-18 in the hippocampus cell increased as compared with the control group (FIG. 6).

In another assay the test system is EAAC1 protein. Briefly: Western blot of EAAC1 protein in mouse hippocampus after intraventricular administration. The format is in vivo. As to conditions: administered in cerebral ventricle, vs control (buffer). On the procedure:
FIG. 4 Results obtained by examining influences of EAAC1 siRNA against the expression of an EAAC1 protein of a mouse hippocampus cell. A) After homogenizing the cell, western blot was performed using an anti-EAAC1 antibody. B) The results of the western blot were digitalized and indicated in terms of a ratio to the buffer administration. The amount of EAAC1 decreased by the introduction of EAAC1 siRNA.
as §3, §4

For assay [4], the system named is glutathione in hippocampus. Briefly: Amount of glutathione in mouse hippocampus (GSH reductase/DTNB, absorbance at 412 nm). It counts as in vivo. The note with it: administered in cerebral ventricle, corrected by tissue weight, vs control. The source says:
FIG. 5 Results obtained by quantitatively determining the amount of glutathione in hippocampus under the conditions of FIGS. 3 and 4. The amount of glutathione of hippocampus decreased by the intraventricular administration of EAAC1 siRNA, whereas the amount of glutathione increased by GTRAP3-18 siRNA.
FIG. 7 The amount of intracellular glutathione (GSH) was quantitatively determined under the conditions of FIG. 6. Glutathione decreased by MeβCD.
Next, after decreasing the amount of GTRAP3-18 or EAAC1 in the hippocampus cell, the amount of glutathione was assayed. That is, an extract from the hippocampus tissue was mixed with a reaction solution containing EDTA (ethylenediaminetetraacetic acid), GSH reductase, DTNB (5,5′-ditiobis-nitrobenzoic acid) and NADPH, and an absorbance at 412 nm was measured. After determining a concentration by using an absorbance of a GSH standard solution, it was corrected by a tissue weight.

[5] abbreviates: listed as methyl-β-cyclodextrin (MeβCD).

Turning to methyl-β-cyclodextrin [MeβCD], in the assay with GTRAP3-18 protein [1], the “amount of GTRAP3-18 in the cell” value is on record as “increased”. In addition, the “amount of EAAC1” value with EAAC1 was “did not change”. For the same substance, the “amount of intracellular glutathione (GSH)” value is on record as “decreased” in assay [2] and “significantly decreased” in assay [2] (setting [5]). Further, the “amount of GTRAP3-18 in hippocampus cell” value in the assay with GTRAP3-18 protein [3] is given as “increased”. For the same substance, the “amount of EAAC1 in hippocampus cell” value in the assay on EAAC1 protein is “did not change”. Also, the “amount of glutathione in hippocampus” value in assay [4] is given as “decreased”; in assay [4] (setting [5]) it was “significantly decreased”.
